From publication PMC8252726, “Automated Glycan Assembly of ^19F‐labeled Glycan Probes Enables High‐Throughput NMR Studies of Protein–Glycan Interactions” (Angewandte Chemie (International Ed. in English), 2021)

Experiments:
[1] = biological target: T1, LecB (Pseudomonas aeruginosa, UniProt Q9HYN5); assay: […] and CPMG NMR screening; format: binding; conditions: fucosylated F-glycans as a group
T1 construct: soluble lectin

[2] = biological target: T2, BambL (Burkholderia ambifaria, UniProt Q0B4G1); assay: […] NMR titration (ligand-observed); format: binding
T2 construct: gene Bamb_5415; soluble lectin; 15N-labeled for TROSY
T2 sequence (Q0B4G1 entry or part of it): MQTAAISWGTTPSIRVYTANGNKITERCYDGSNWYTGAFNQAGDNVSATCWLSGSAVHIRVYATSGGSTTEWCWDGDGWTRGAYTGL

[3] = system: β‐galactosidase; assay: real-time […] NMR of product formation; format: biochemical; conditions: Henry-Michaelis-Menten fit
[4] = biological target: T3, Pdα26ST (Photobacterium damselae, UniProt O66375); assay: CPMG […] NMR screening; format: binding; conditions: without donor CMP-Neu5Ac
T3 construct: gene bst
T3 sequence (O66375 16-675): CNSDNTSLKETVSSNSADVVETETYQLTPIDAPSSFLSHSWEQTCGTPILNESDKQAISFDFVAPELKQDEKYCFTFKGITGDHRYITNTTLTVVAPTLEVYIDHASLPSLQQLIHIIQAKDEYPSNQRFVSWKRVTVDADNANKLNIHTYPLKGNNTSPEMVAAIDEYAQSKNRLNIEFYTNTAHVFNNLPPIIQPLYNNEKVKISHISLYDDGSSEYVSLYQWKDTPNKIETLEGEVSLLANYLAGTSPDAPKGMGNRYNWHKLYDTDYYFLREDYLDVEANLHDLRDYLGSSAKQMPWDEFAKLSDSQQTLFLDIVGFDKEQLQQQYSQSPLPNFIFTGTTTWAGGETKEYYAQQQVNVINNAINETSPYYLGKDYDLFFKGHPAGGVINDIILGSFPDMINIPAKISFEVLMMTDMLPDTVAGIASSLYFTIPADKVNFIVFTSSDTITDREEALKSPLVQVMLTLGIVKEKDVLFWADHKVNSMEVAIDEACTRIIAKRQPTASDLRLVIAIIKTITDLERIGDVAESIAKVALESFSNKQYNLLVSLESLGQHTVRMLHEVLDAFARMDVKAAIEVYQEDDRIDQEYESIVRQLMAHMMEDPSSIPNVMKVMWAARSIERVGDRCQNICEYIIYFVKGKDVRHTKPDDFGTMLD

[5] = biological target: T4, Pmα23ST (Pasteurella multocida, UniProt Q15KI8); assay: CPMG […] NMR screening; format: binding; conditions: without donor; also sialylated with CMP-Neu5Ac
T4 construct: gene Pm0188
T4 sequence (Q15KI8 26-412): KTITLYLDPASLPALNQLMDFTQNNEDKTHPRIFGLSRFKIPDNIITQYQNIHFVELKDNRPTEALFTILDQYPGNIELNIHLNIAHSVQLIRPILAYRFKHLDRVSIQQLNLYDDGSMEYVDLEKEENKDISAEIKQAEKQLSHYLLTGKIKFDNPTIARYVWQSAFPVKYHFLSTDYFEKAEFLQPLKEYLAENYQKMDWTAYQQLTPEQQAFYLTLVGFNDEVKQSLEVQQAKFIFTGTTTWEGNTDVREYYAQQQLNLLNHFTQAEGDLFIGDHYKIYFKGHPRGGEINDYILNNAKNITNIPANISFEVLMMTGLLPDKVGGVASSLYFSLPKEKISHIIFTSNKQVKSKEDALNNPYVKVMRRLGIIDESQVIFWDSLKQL

T1 sequence (Q9HYN5 entry or part of it): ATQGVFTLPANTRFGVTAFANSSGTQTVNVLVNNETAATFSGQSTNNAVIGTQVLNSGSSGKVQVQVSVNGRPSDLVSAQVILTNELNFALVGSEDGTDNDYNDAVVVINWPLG

Compound | 19F and CPMG NMR screening [1] | Kd [2] | Km [3] | CPMG 19F NMR screening [4] | CPMG 19F NMR screening [5]
CC(=O)N[C@H]1[C@H](O[C@H]2[C@@H](O)[C@@H](CO)O[C@@H](O[C@H]3[C@H](F)[C@@H](O)[C@H](OCCCCCN)O[C@@H]3CO)[C@@H]2O)O[C@H](CO)[C@@H](O[C@@H]2O[C@H](CO)[C@H](O)[C@H](O)[C@H]2O[C@@H]2O[C@@H](C)[C@@H](O)[C@@H](O)[C@@H]2O)[C@@H]1O [F‐H type 2] | bacterial (LecA, LecB, and BambL) and mammalian (DC‐SIGN ECD) lectins preferred fucosylated glycans | 9 ± 2 µM |  |  | 
NCCCCCO[C@@H]1O[C@H](CO)[C@@H](O[C@@H]2O[C@H](CO)[C@H](O)[C@H](O)[C@H]2O)[C@H](F)[C@H]1O [F‐Lac] |  |  | 86.5 ± 10.5 µM | Shorter non‐branched glycans (F‐Lac and F‐nLac4) showed stronger binding than longer branched ones | 
CC(=O)N[C@H]1[C@H](O[C@H]2[C@@H](O)[C@@H](CO)O[C@@H](O[C@H]3[C@H](F)[C@@H](O)[C@H](OCCCCCN)O[C@@H]3CO)[C@@H]2O)O[C@H](CO)[C@@H](O[C@@H]2O[C@H](CO)[C@H](O)[C@H](O)[C@H]2O[C@@H]2O[C@@H](C)[C@@H](O)[C@@H](O)[C@@H]2O)[C@@H]1O[C@@H]1O[C@@H](C)[C@@H](O)[C@@H](O)[C@@H]1O [F‐Le^y] |  | 14 ± 2 µM |  |  | 
CC(=O)N[C@H]1[C@H](O[C@H]2[C@@H](O)[C@@H](CO)O[C@@H](O[C@H]3[C@H](F)[C@@H](O)[C@H](OCCCCCN)O[C@@H]3CO)[C@@H]2O)O[C@H](CO)[C@@H](O[C@@H]2O[C@H](CO)[C@H](O)[C@H](O)[C@H]2O)[C@@H]1O [F‐nLac4] |  |  |  | Shorter non‐branched glycans (F‐Lac and F‐nLac4) showed stronger binding than longer branched ones | Shorter non‐branched glycans (F‐Lac and F‐nLac4) showed stronger binding than longer branched ones
